Experimental data from PubChem BioAssay (NCI).
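Exposure lasted 48 hours, with cells grown in 96-well plates and compounds tested at five concentrations. GI50 = concentration required for 50% inhibition of growth. TGI denotes the concentration required for complete inhibition of growth.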

Key:
Assay in all cases: DTP human tumour cell line panel, 48 h; in the data active means GI50 below about 0.43 µM; inactive means the rest
786-0 renal = test system: 786-0 renal
A498 renal = test system: A498 renal
A549 NSCLC = test system: A549 NSCLC
ACHN renal = test system: ACHN renal
CAKI-1 renal = test system: CAKI-1 renal
CCRF-CEM leukemia = test system: CCRF-CEM leukemia
COLO 205 colon = test system: COLO 205 colon
DLD-1 colon = test system: DLD-1 colon
DMS 273 small cell lung = test system: DMS 273 small cell lung
EKVX NSCLC = test system: EKVX NSCLC
HCC-2998 colon = test system: HCC-2998 colon
HCT-116 colon = test system: HCT-116 colon
HCT-15 colon = test system: HCT-15 colon
HL-60(TB) leukemia = test system: HL-60(TB) leukemia
HOP-18 NSCLC = test system: HOP-18 NSCLC
HOP-62 NSCLC = test system: HOP-62 NSCLC
HOP-92 NSCLC = test system: HOP-92 NSCLC
HT29 colon = test system: HT29 colon
IGROV1 ovarian = test system: IGROV1 ovarian
K-562 leukemia = test system: K-562 leukemia
KM12 colon = test system: KM12 colon
KM20L2 colon = test system: KM20L2 colon
LOX IMVI melanoma = test system: LOX IMVI melanoma
LXFL 529 NSCLC = test system: LXFL 529 NSCLC
M14 melanoma = test system: M14 melanoma
MALME-3M melanoma = test system: MALME-3M melanoma
MOLT-4 leukemia = test system: MOLT-4 leukemia
NCI-H226 lung = test system: NCI-H226 lung
NCI-H23 lung = test system: NCI-H23 lung
NCI-H460 lung = test system: NCI-H460 lung
NCI-H522 lung = test system: NCI-H522 lung
OVCAR-3 ovarian = test system: OVCAR-3 ovarian
OVCAR-4 ovarian = test system: OVCAR-4 ovarian
OVCAR-5 ovarian = test system: OVCAR-5 ovarian
OVCAR-8 ovarian = test system: OVCAR-8 ovarian
RPMI-8226 leukemia = test system: RPMI-8226 leukemia
RXF 393 renal = test system: RXF 393 renal
SF-268 CNS = test system: SF-268 CNS
SF-295 CNS = test system: SF-295 CNS
SF-539 CNS = test system: SF-539 CNS
SK-MEL-2 melanoma = test system: SK-MEL-2 melanoma
SK-MEL-28 melanoma = test system: SK-MEL-28 melanoma
SK-MEL-5 melanoma = test system: SK-MEL-5 melanoma
SK-OV-3 ovarian = test system: SK-OV-3 ovarian
SN12C renal = test system: SN12C renal
SNB-19 CNS = test system: SNB-19 CNS
SNB-75 CNS = test system: SNB-75 CNS
SNB-78 CNS = test system: SNB-78 CNS
SR leukemia = test system: SR leukemia
SW-620 colon = test system: SW-620 colon
TK-10 renal = test system: TK-10 renal
U251 CNS = test system: U251 CNS
UACC-257 melanoma = test system: UACC-257 melanoma
UACC-62 melanoma = test system: UACC-62 melanoma
UO-31 renal = test system: UO-31 renal
XF 498 CNS = test system: XF 498 CNS
M19-MEL melanoma = test system: M19-MEL melanoma

O=C([O-])c1ccc2c(c1)-c1nc-2nc2[n-]c(nc3nc(nc4[n-]c(n1)c1ccc(C(=O)[O-])cc41)-c1ccc(C(=O)[O-])cc1-3)c1ccc(C(=O)[O-])cc21.[Gd+3].[K+]
> 50.9 µM: TGI (SW-620 colon)
> 64.3 µM: TGI (HCT-15 colon)
36.1 µM: TGI (DMS 273 small cell lung)
> 56.8 µM: TGI (K-562 leukemia)
> 100 µM: TGI (A498 renal) | TGI (A549 NSCLC) | TGI (ACHN renal) | TGI (CAKI-1 renal) | TGI (EKVX NSCLC) | TGI (HCC-2998 colon) | TGI (HOP-18 NSCLC) | TGI (HOP-62 NSCLC) | TGI (HOP-92 NSCLC) | TGI (HT29 colon) | TGI (IGROV1 ovarian) | TGI (KM20L2 colon) | TGI (LXFL 529 NSCLC) | TGI (M14 melanoma) | TGI (MALME-3M melanoma) | TGI (MOLT-4 leukemia) | TGI (NCI-H226 lung) | TGI (NCI-H23 lung) | TGI (NCI-H460 lung) | TGI (NCI-H522 lung) | TGI (OVCAR-3 ovarian) | TGI (OVCAR-5 ovarian) | TGI (OVCAR-8 ovarian) | TGI (RXF 393 renal) | TGI (SF-268 CNS) | TGI (SF-295 CNS) | TGI (SK-MEL-2 melanoma) | TGI (SK-MEL-28 melanoma) | TGI (SK-MEL-5 melanoma) | TGI (SK-OV-3 ovarian) | TGI (SN12C renal) | TGI (SNB-19 CNS) | TGI (SNB-75 CNS) | TGI (SNB-78 CNS) | TGI (TK-10 renal) | TGI (U251 CNS) | TGI (UACC-257 melanoma) | TGI (UACC-62 melanoma) | TGI (UO-31 renal) | TGI (XF 498 CNS)
34.6 µM: TGI (KM12 colon)
45.7 µM: TGI (LOX IMVI melanoma)
> 54.2 µM: TGI (CCRF-CEM leukemia)
> 54.5 µM: TGI (HL-60(TB) leukemia)
> 56.6 µM: TGI (HCT-116 colon)
> 94 µM: TGI (DLD-1 colon)
> 71.7 µM: TGI (OVCAR-4 ovarian)
> 66 µM: TGI (RPMI-8226 leukemia)
> 55.2 µM: TGI (COLO 205 colon)
53.9 µM: TGI (SR leukemia)
40.9 µM: TGI (786-0 renal)
inactive: GI50 (786-0 renal) 18 µM | GI50 (A498 renal) > 100 µM | GI50 (A549 NSCLC) > 100 µM | GI50 (ACHN renal) > 100 µM | GI50 (CAKI-1 renal) > 100 µM | GI50 (CCRF-CEM leukemia) > 36.5 µM | GI50 (COLO 205 colon) > 38.9 µM | GI50 (DLD-1 colon) > 53.2 µM | GI50 (DMS 273 small cell lung) 16.6 µM | GI50 (EKVX NSCLC) > 100 µM | GI50 (HCC-2998 colon) > 100 µM | GI50 (HCT-116 colon) > 40.1 µM | GI50 (HCT-15 colon) > 42.6 µM | GI50 (HL-60(TB) leukemia) > 38.5 µM | GI50 (HOP-18 NSCLC) > 100 µM | GI50 (HOP-62 NSCLC) > 100 µM | GI50 (HOP-92 NSCLC) > 100 µM | GI50 (HT29 colon) > 83.1 µM | GI50 (IGROV1 ovarian) > 100 µM | GI50 (K-562 leukemia) > 38.9 µM | GI50 (KM12 colon) 19.1 µM | GI50 (KM20L2 colon) > 58.8 µM | GI50 (LOX IMVI melanoma) 16.6 µM | GI50 (LXFL 529 NSCLC) > 57.1 µM | GI50 (M14 melanoma) > 65.1 µM | GI50 (MALME-3M melanoma) > 100 µM | GI50 (MOLT-4 leukemia) > 49 µM | GI50 (NCI-H226 lung) > 100 µM | GI50 (NCI-H23 lung) > 100 µM | GI50 (NCI-H460 lung) > 100 µM | GI50 (NCI-H522 lung) > 100 µM | GI50 (OVCAR-3 ovarian) > 100 µM | GI50 (OVCAR-4 ovarian) > 46.7 µM | GI50 (OVCAR-5 ovarian) > 100 µM | GI50 (OVCAR-8 ovarian) > 100 µM | GI50 (RPMI-8226 leukemia) > 47.2 µM | GI50 (RXF 393 renal) > 100 µM | GI50 (SF-268 CNS) > 64.1 µM | GI50 (SF-295 CNS) > 100 µM | GI50 (SF-539 CNS) > 46.5 µM | GI50 (SK-MEL-2 melanoma) > 100 µM | GI50 (SK-MEL-28 melanoma) > 100 µM | GI50 (SK-MEL-5 melanoma) > 100 µM | GI50 (SK-OV-3 ovarian) > 100 µM | GI50 (SN12C renal) > 72.7 µM | GI50 (SNB-19 CNS) > 100 µM | GI50 (SNB-75 CNS) > 100 µM | GI50 (SNB-78 CNS) > 100 µM | GI50 (SR leukemia) 30.6 µM | GI50 (SW-620 colon) > 22.8 µM | GI50 (TK-10 renal) > 100 µM | GI50 (U251 CNS) > 57 µM | GI50 (UACC-257 melanoma) > 100 µM | GI50 (UACC-62 melanoma) 99.7 µM | GI50 (UO-31 renal) > 100 µM | GI50 (XF 498 CNS) > 100 µM
> 69 µM: TGI (SF-539 CNS)

CSC1(C)CC2C(CC1N1CCCCC1)C2(C)C (stereo unspecified)
> 100 µM: TGI (786-0 renal) | TGI (A549 NSCLC) | TGI (ACHN renal) | TGI (CCRF-CEM leukemia) | TGI (COLO 205 colon) | TGI (DLD-1 colon) | TGI (DMS 273 small cell lung) | TGI (HCC-2998 colon) | TGI (HCT-116 colon) | TGI (HCT-15 colon) | TGI (HL-60(TB) leukemia) | TGI (HOP-18 NSCLC) | TGI (HOP-92 NSCLC) | TGI (HT29 colon) | TGI (IGROV1 ovarian) | TGI (K-562 leukemia) | TGI (KM12 colon) | TGI (LXFL 529 NSCLC) | TGI (M14 melanoma) | TGI (M19-MEL melanoma) | TGI (MALME-3M melanoma) | TGI (MOLT-4 leukemia) | TGI (NCI-H226 lung) | TGI (NCI-H23 lung) | TGI (NCI-H460 lung) | TGI (OVCAR-3 ovarian) | TGI (OVCAR-4 ovarian) | TGI (OVCAR-5 ovarian) | TGI (OVCAR-8 ovarian) | TGI (RPMI-8226 leukemia) | TGI (SF-268 CNS) | TGI (SF-295 CNS) | TGI (SF-539 CNS) | TGI (SK-MEL-2 melanoma) | TGI (SK-MEL-28 melanoma) | TGI (SK-OV-3 ovarian) | TGI (SN12C renal) | TGI (SNB-75 CNS) | TGI (SNB-78 CNS) | TGI (TK-10 renal) | TGI (U251 CNS) | TGI (UACC-257 melanoma) | TGI (UO-31 renal) | TGI (XF 498 CNS)
